# From EPA's ToxRefDB 2
# How the values were obtained:
# [1] = system: dog; conditions: Chronic toxicity, beagle, Oral, Capsule, dose end: 52 week, group: systemic
# [2] = system: rat; conditions: Prenatal developmental toxicity study, sprague dawley, Oral, Gavage/Intubation, dose end: 17 GD
# [3] = system: mouse; conditions: Carcinogenicity, cd1, Oral, Feed, dose end: 80 week, group: systemic
# [4] = system: rat; conditions: Subchronic oral toxicity in rodents, fischer, [Not Specified], dose end: 90 day, group: systemic
# [5] = system: dog; conditions: Subchronic oral toxicity in nonrodent, beagle, Capsule, dose end: 90 day, group: systemic
# [6] = system: mouse; conditions: Subchronic oral toxicity in rodents, cd1, Feed, dose end: 90 day, group: systemic
# [7] = system: rat; conditions: Combined chronic toxicity/carcinogenicity, fischer, Oral, Feed, dose end: 104 week, group: systemic
# [8] = system: rabbit; conditions: Prenatal developmental toxicity study, new zealand white, Oral, Gavage/Intubation, dose end: 18 GD
# [9] = system: mouse; conditions: Carcinogenicity; cd1; Oral; Feed; dose end: 80 week; group: systemic; systemic / pathology microscopic / liver / adenoma + systemic / in life observation / body weight / body weight gain + systemic / in life …
# [10] = system: dog; conditions: Chronic toxicity; beagle; Oral; Feed; dose end: 52 week; group: systemic; systemic / organ weight / liver / relative to body weight + systemic / pathology microscopic / liver / vacuolization + systemic / pathology …
# [11] = system: rat; conditions: Subchronic oral toxicity in rodents, sprague dawley, Feed, dose end: 90 day, group: systemic, systemic / in life observation / body weight / body weight + systemic / in life observation / body weight / body weight gain + systemic / in…
# [12] = system: dog; conditions: Subchronic oral toxicity in nonrodent, beagle, Feed, dose end: 90 day, group: systemic, systemic / hematology / erythrocyte (rbc) count differential / erythrocyte (rbc) + systemic / hematology / hematocrit (hct) / hematocrit (…
# [13] = system: rat; conditions: Combined chronic toxicity/carcinogenicity, other, Oral, Feed, dose end: 24 month, group: systemic
# [14] = systemic / pathology gross / gallbladder / discolored + systemic / pathology microscopic / liver / hemosiderin laden macrophages
# [15] = group: developmental, developmental / developmental malformation / bone / misshapen + developmental / developmental malformation / bone / supernumerary + …
# [16] = group: maternal, systemic / in life observation / clinical signs / general pallor + systemic / in life observation / clinical signs / piloerection + systemic…
# [17] = systemic / clinical chemistry / alanine aminotransferase (alt/sgpt) / alanine aminotransferase (alt/sgpt) + systemic / clinical chemistry / …
# [18] = systemic / hematology / blood clotting / blood clotting - activated partial thromboplastin time + systemic / hematology / blood clotting / …
# [19] = systemic / in life observation / body weight / body weight gain + systemic / in life observation / food consumption / food efficiency
# [20] = systemic / in life observation / body weight / body weight gain + systemic / in life observation / food consumption / food efficiency + …
# [21] = systemic / clinical chemistry / albumin / albumin + systemic / hematology / eosinophils / eosinophils + systemic / hematology / neutrophils…
# [22] = systemic / hematology / eosinophils / eosinophils + systemic / hematology / neutrophils / neutrophils + systemic / organ weight / liver / …
# [23] = systemic / urinalysis / appearance and color / appearance and color + systemic / pathology microscopic / pancreas / proliferation
# [24] = group: developmental, developmental / developmental malformation / bone / full supernumerary
# [25] = group: maternal, reproductive / reproductive performance / resorptions / resorptions + systemic / in life observation / body weight / body weight gain + …
# [26] = systemic / in life observation / body weight / body weight gain
# [27] = systemic / in life observation / body weight / body weight gain + systemic / in life observation / body weight / body weight + systemic / …
smiles,measurement,setting,value
CCCCCCCCCCCCC1=C(OC(C)=O)C(=O)c2ccccc2C1=O [Acequinocyl],LOAEL,[1]; systemic / hematology / platelet / platelet + systemic / hematology / reticulocyte / reticulocyte,20 mg/kg/day
same,NOAEL,[1]; systemic / hematology / platelet / platelet + systemic / hematology / reticulocyte / reticulocyte + systemic / clinical chemistry / albumin…,5 mg/kg/day
same,LEL,[1]; [14],5 mg/kg/day
same,NEL,[1]; [14],< 5 mg/kg/day
same,LEL,[2]; [15],750 mg/kg/day
same,LOAEL,[2]; [15],750 mg/kg/day
same,NEL,[2]; [15],500 mg/kg/day
same,NOAEL,[2]; [15],500 mg/kg/day
same,LEL,[2]; [16],500 mg/kg/day
same,LOAEL,[2]; [16],500 mg/kg/day
same,NEL,[2]; [16],150 mg/kg/day
same,NOAEL,[2]; [16],150 mg/kg/day
same,LEL,[3]; [17],2.7 mg/kg/day
same,NEL,[3]; [17],< 2.7 mg/kg/day
same,NOAEL,[3]; [17],7 mg/kg/day
same,LOAEL,[3]; systemic / pathology microscopic / liver / fatty change + systemic / pathology microscopic / liver / vacuolization,20.3 mg/kg/day
same,LEL,[4]; systemic / clinical chemistry / gamma glutamyl transpeptides (gtp) / gamma glutamyl transpeptides (gtp) + systemic / urinalysis / appearance…,30.4 mg/kg/day
same,LOAEL,[4]; [18],120 mg/kg/day
same,NEL,[4]; [18],7.6 mg/kg/day
same,NOAEL,[4]; [18],30.4 mg/kg/day
same,LOAEL,[5]; [19],40 mg/kg/day
same,NOAEL,[5]; [19],< 40 mg/kg/day
same,LEL,[5]; [20],40 mg/kg/day
same,NEL,[5]; [20],< 40 mg/kg/day
same,LOAEL,[6]; [21],81 mg/kg/day
same,NOAEL,[6]; [21],16 mg/kg/day
same,LEL,[6]; [22],16 mg/kg/day
same,NEL,[6]; [22],< 16 mg/kg/day
same,LOAEL,[7]; systemic / pathology gross / eye / enlarged,9.02 mg/kg/day
same,NOAEL,[7]; systemic / pathology gross / eye / enlarged + systemic / in life observation / body weight / body weight + systemic / in life observation / …,2.25 mg/kg/day
same,LEL,[7]; [23],2.92 mg/kg/day
same,NEL,[7]; [23],< 2.92 mg/kg/day
same,LEL,[8]; [24],120 mg/kg/day
same,LOAEL,[8]; [24],120 mg/kg/day
same,NEL,[8]; [24],60 mg/kg/day
same,NOAEL,[8]; [24],60 mg/kg/day
same,LEL,[8]; [25],120 mg/kg/day
same,LOAEL,[8]; [25],120 mg/kg/day
same,NEL,[8]; [25],60 mg/kg/day
same,NOAEL,[8]; [25],60 mg/kg/day
COC(=O)c1ccccc1S(=O)(=O)NC(=O)Nc1nc(OC(F)F)cc(OC(F)F)n1 [Primisulfuron-methyl],LEL,[9],408 mg/kg/day
same,LOAEL,[9],408 mg/kg/day
same,NEL,[9],40.2 mg/kg/day
same,NOAEL,[9],40.2 mg/kg/day
same,LEL,[10],125 mg/kg/day
same,LOAEL,[10],125 mg/kg/day
same,NEL,[10],25 mg/kg/day
same,NOAEL,[10],25 mg/kg/day
same,LEL,[11],150 mg/kg/day
same,LOAEL,[11],150 mg/kg/day
same,NEL,[11],15 mg/kg/day
same,NOAEL,[11],15 mg/kg/day
same,LEL,[12],250 mg/kg/day
same,LOAEL,[12],250 mg/kg/day
same,NEL,[12],25 mg/kg/day
same,NOAEL,[12],25 mg/kg/day
same,LEL,[13]; [26],127 mg/kg/day
same,LOAEL,[13]; [26],127 mg/kg/day
same,NEL,[13]; [27],12.4 mg/kg/day
same,NOAEL,[13]; [27],12.4 mg/kg/day
